Measured values from PMC3402541, “Guanidylation and Tail Effects in Cationic Antimicrobial Lipopeptoids” (PLoS ONE, 2012).
In brackets after ≈: the same amount, converted by molar mass.

Columns and labels:
[1] = system: S.aureus ATCC 29213; type: cell-based, Staphylococcus aureus; conditions: ATCC 29213, 24 h
Method: (§1) Antimicrobial activity of the purified lipopeptoids was determined without replication against a panel of clinically relevant and standard reference bacterial strains according to CLSI macrobroth standards. Stock solutions at 512 µg/mL were prepared in water, with DMSO as needed, and testing was performed in glass test tubes using Muller-Hinton broth and bacteria adjusted to 5 × 10^5 CFU/mL. Bacteria were incubated with the lipopeptoid of interest for 24 hr at 37°C prior to reading.
(§2) The bacteria Staphylococcus aureus ATCC 29213, methicillin-resistant S. aureus ATCC 33592, Staphylococcus epidermidis ATCC 14990, Enterococcus faecalis ATCC 29212, E. faecium ATCC 27270, Streptococcus pneumoniae ATCC 49619, Escherichia coli ATCC 25922, Pseudomonas aeruginosa ATCC 27853, and Klebsiella pneumoniae ATCC 13883 were acquired from the American Type Culture Collection (ATCC) and used as quality controls. The clinical strains methicillin-resistant S. epidermidis (MRSE) CAN-ICU 61589, E. coli CAN-ICU 61714, E. coli CAN-ICU 63074, P. aeruginosa CAN-ICU 62308, Stenotrophomonas maltophilia CAN-ICU 62584, Acinetobacter baumannii CAN-ICU 63169 were obtained from hospitals across Canada as part of the CAN-ICU studies, while methicillin-susceptible S. epidermidis (MSSE) 81388 was obtained from the 2008 CANWARD study.
(§3) After subculturing the relevant bacteria twice from frozen stock, in vitro activities of the antimicrobials were determined by macrobroth dilution methodology in accordance with the Clinical and Laboratory Standards Institute (CLSI) guidelines (3). The MICs were determined using glass test tubes (2 mL/tube) containing doubling antimicrobial dilutions of cation adjusted Mueller-Hinton broth inoculated to achieve a final concentration of approximately 5 x 10^5 CFU/mL, incubated in ambient air for 24 hr prior to reading. Colony counts were performed periodically to confirm inocula. The ATCC organisms […] ATCC 49619, Staphylococcus aureus ATCC 29213, Enterococcus faecalis ATCC 29212, Escherichia coli ATCC 25922, and Pseudomonas aeruginosa ATCC 27853 were used as quality control and to allow easy comparison to previously tested antimicrobials. Each test in this series was performed without replication. In our experience with cationic amphiphiles the results are accurate to within a single doubling.

[2] = system: MRSA ATCC 33592; type: cell-based, methicillin-resistant S. aureus; conditions: ATCC 33592, 24 h
Method: as §1, §2, §3

[3] = system: MSSE 81388 CANWARD 2008; type: cell-based, methicillin-susceptible S. epidermidis; conditions: 24 h
Method: as §1, §2, §3

[4] = system: MRSE CAN-ICU 61589; type: cell-based, methicillin-resistant S. epidermidis; conditions: CAN-ICU 61589, 24 h
Method: as §1, §2, §3

[5] = system: E. faecalis ATCC 29212; type: cell-based, Enterococcus faecalis; conditions: ATCC 29212, 24 h
Method: as §1, §2, §3

[6] = system: S.pneumoniae ATCC 49619; type: cell-based, Streptococcus pneumoniae; conditions: ATCC 49619, 24 h
Method: as §1, §2, §3

[7] = system: P.aeruginosa ATCC 27853; type: cell-based, Pseudomonas aeruginosa; conditions: ATCC 27853, 24 h
Method: as §1, §2, §3

[8] = system: P.aeruginosa CAN-ICU 62308; type: cell-based, Pseudomonas aeruginosa; conditions: CAN-ICU 62308, 24 h
Method: as §1, §2, §3

[9] = system: S. maltophilia CAN-ICU 62584; type: cell-based, Stenotrophomonas maltophilia; conditions: CAN-ICU 62584, 24 h
Method: as §1, §2, §3

[10] = system: A. baumannii CAN-ICU 63169; type: cell-based, Acinetobacter baumannii; conditions: CAN-ICU 63169, 24 h
Method: as §1, §2, §3

[11] = system: K.pneumoniae ATCC 13883; type: cell-based, Klebsiella pneumoniae; conditions: ATCC 13883, 24 h
Method: as §1, §2, §3

[12] = system: ovine erythrocytes; experiment: Haemolytic assay; type: cell-based, sheep; conditions: ovine erythrocytes in Tris buffered saline, 30 minutes, absorbance of supernatant at 540 nm
Method: Mammalian cell toxicity was determined by measuring lysis of ovine erythrocytes, a standard model for human cell toxicity. Cells were prewashed with Tris buffered saline and then incubated with a variety of lipopeptoid concentrations for 30 minutes. Following centrifugation, lysis was evaluated by testing the absorbance of the solution at 540 nm, with 0.5% NH4OH used as a positive control.
Toxicity to mammalian cells was determined using a sheep red blood cell (erythrocyte) haemolytic assay (4). Erythrocytes were washed and resuspended in Tris buffered saline prior to use, at a concentration of 1.46 - 4.5 x 10^9 cells/mL (on average 3.08 x 10^9 cells/mL). The cell suspension was diluted with varying concentrations of antimicrobials, from 50 μg/mL to 1 mg/mL and incubated for thirty minutes (final erythrocyte concentration 4.08 x 10^8 cells/mL). The samples were centrifuged following treatment and the absorbance of the supernatant was measured at 540 nm. A solution of 0.5% […] was used as a positive control, with normal buffered solution as the negative control. The toxicity was assessed as a function of percent haemolysis.

[13] = system: E.coli ATCC 25922; type: cell-based, Escherichia coli; conditions: ATCC 25922, 24 h
Method: as §1, §2, §3

[14] = system: E.coli CAN-ICU 61714; type: cell-based, Escherichia coli; conditions: CAN-ICU 61714, 24 h
Method: as §1, §2, §3

[15] = system: E.coli CAN-ICU 63074; type: cell-based, Escherichia coli; conditions: CAN-ICU 63074, 24 h
Method: as §1, §2, §3

[16] = system: E. faecium ATCC 27270; type: cell-based; conditions: ATCC 27270, 24 h
Method: as §1, §2, §3

SMILES	MIC S.aureus [1] [µg/mL]	MIC S.aureus in the presence of 4% bovine serum albumin [1] [µg/mL]	MIC MRSA [2] [µg/mL]	MIC MRSA in the presence of 4% bovine serum albumin [2] [µg/mL]	MIC MSSE [3] [µg/mL]	MIC MSSE in the presence of 4% bovine serum albumin [3] [µg/mL]	MIC MRSE [4] [µg/mL]	MIC MRSE in the presence of 4% bovine serum albumin [4] [µg/mL]	MIC E. faecalis [5] [µg/mL]	MIC E. faecalis in the presence of 4% bovine serum albumin [5] [µg/mL]	MIC S.pneumoniae [6] [µg/mL]	MIC S.pneumoniae in the presence of 4% bovine serum albumin [6] [µg/mL]	MIC P.aeruginosa [7] [µg/mL]	MIC P.aeruginosa in the presence of 4% bovine serum albumin [7] [µg/mL]	MIC P.aeruginosa [8] [µg/mL]	MIC P.aeruginosa in the presence of 4% bovine serum albumin [8] [µg/mL]	MIC S. maltophilia [9] [µg/mL]	MIC S. maltophilia in the presence of 4% bovine serum albumin [9] [µg/mL]	MIC A. baumannii [10] [µg/mL]	MIC A. baumannii in the presence of 4% bovine serum albumin [10] [µg/mL]	further results
CCCCCCCCCCCCCCCCCCCC(=O)N(CCCCNC(=N)N)CC(=O)NCC(=O)N(CCCCNC(=N)N)CC(N)=O [C20-NhargGNharg]	16 (≈ 22.6 µM)	512	16 (≈ 22.6 µM)	512	8 (≈ 11.3 µM)	256	8 (≈ 11.3 µM)	256	16 (≈ 22.6 µM)	512	256 (≈ 361 µM)	64	512 (≈ 722 µM)	>512	256 (≈ 361 µM)	>512	256 (≈ 361 µM)	>512	128 (≈ 181 µM)	>512	MIC K.pneumoniae [11]: 128 µg/mL (≈ 181 µM); MIC K.pneumoniae in the presence of 4% bovine serum albumin [11]: 512 µg/mL; Percent haemolysis at 100µg/mL of compound [12]: 71.87%; MIC E.coli [13]: 256 µg/mL (≈ 361 µM); MIC E.coli in the presence of 4% bovine serum albumin [13]: 512 µg/mL; MIC E.coli [14]: 256 µg/mL (≈ 361 µM); MIC E.coli in the presence of 4% bovine serum albumin [14]: >512 µg/mL; MIC E.coli [15]: 256 µg/mL (≈ 361 µM); MIC E.coli in the presence of 4% bovine serum albumin [15]: 512 µg/mL; MIC E. faecium [16]: 16 µg/mL (≈ 22.6 µM); MIC E. faecium in the presence of 4% bovine serum albumin [16]: 256 µg/mL
CCCCCCCCCCCCCC(=O)N(CCCCN)CC(=O)N(CCCCN)CC(=O)N(CCCCN)CC(N)=O [C14-NlysNlysNlys]	32 (≈ 52.3 µM)	512	64 (≈ 105 µM)	512	32 (≈ 52.3 µM)	512	16 (≈ 26.1 µM)	512	64 (≈ 105 µM)	512	128 (≈ 209 µM)	>512	512 (≈ 837 µM)	>512	512 (≈ 837 µM)	512	>512	>512	512 (≈ 837 µM)	>512	MIC K.pneumoniae [11]: 512 µg/mL (≈ 837 µM); MIC K.pneumoniae in the presence of 4% bovine serum albumin [11]: >512 µg/mL; Percent haemolysis at 100µg/mL of compound [12]: 2.19%; MIC E.coli [13]: 128 µg/mL (≈ 209 µM); MIC E.coli in the presence of 4% bovine serum albumin [13]: >512 µg/mL; MIC E.coli [14]: 128 µg/mL (≈ 209 µM); MIC E.coli in the presence of 4% bovine serum albumin [14]: >512 µg/mL; MIC E.coli [15]: 128 µg/mL (≈ 209 µM); MIC E.coli in the presence of 4% bovine serum albumin [15]: >512 µg/mL; MIC E. faecium [16]: 64 µg/mL (≈ 105 µM); MIC E. faecium in the presence of 4% bovine serum albumin [16]: 512 µg/mL
